Here are results for five compounds from patent publication US12508248B2, “Therapeutic agent for prototheca disease” (priority 2019, dated 2025).

One may read the MIC as the least concentration at which growth counts as inhibited. Low values mean a more susceptible organism, high ones a less susceptible organism.

In brackets after ≈: the same amount, converted by molar mass.

For data set [1] the following is noted: when administered to humans; cited from earlier work.
For data set [2], the system named is several strains of Prototheca wickerhamii and Prototheca zopfii. The note with it: previous study on susceptibility, Non-Patent Document 1; cited from earlier work.
The test system of data set [3] is Candida parapsilosis ATCC 22019. Nature of the data set: MIC assay of the CLSI M27-A3 test, control strain. The format is cell-based. How it is done: (§1) The isolates were maintained on Yeast Extract-Peptone-Dextrose agar (YPD: 1% yeast extract, 2% peptone, 2% dextrose, 2% agar) and tested for antifungal susceptibility. The susceptibility of the isolates to the antifungal agents itraconazole (ITZ, Merck KGA) and ravuconazole (RVZ, selenium pharma) was measured using a trace liquid dilution method (broth microdilution assay) according to the CLSI M27-A3 guideline. The minimum inhibitory concentration (MIC) was measured after culturing at 32 degrees for 72 hours. MIC was defined as the lowest concentration that induces significant inhibition of growth (inhibition of about 50% or more). As a control, Candida parapsilosis ATCC 22019 obtained from ATCC was used, and the MIC assay of the CLSI M27-A3 test was performed.

In the next data set the test system is prototheca species. Nature of the data set: Overall comparison of anti-algae effect against prototheca species. The format is cell-based. How it is done: as §1
The subject of another data set is Prototheca wickerhamii. In words: Broth microdilution MIC assay, CLSI M27-A3 guideline. The format is cell-based. The note with it: for MICs: 32 degrees, 72 hours. Here is the method:
(§2) For Prototheca wickerhamii, isolates (1 cat strain and 2 dog strains) were obtained from dogs and cats suffering from a prototheca disease. For Prototheca zopfii, bovine prototheca mastitis isolates (Genotype 2, 10 strains) and environmental isolates (Genotype 1, 10 strains) were obtained. For Prototheca blaskeae, a prototheca mastitis isolate (1 strain) was obtained. For Prototheca zopfii, the drug susceptibility was tested also on Genotype 1 established strain (SAG20063^T) and Genotype 2 established strain (SAG2021^T).
as §1
(In general: Dilution methods test growth across graded concentrations, often in twofold steps.)

A further data set has as its system Prototheca blaskeae. Described as above. In kind it is cell-based. The note with it: strain NUBS19005, bovine protothecal mastitis; 32 degrees, 72 hours. How it is done:
as §2, §1

The subject of data set [4] is Prototheca zopfii Genotype 1. The data set is described as above. The format is cell-based. The note with it: for MICs: 32 degrees, 72 hours. How it is done: as §2, §1
Data set [5] has as its system Prototheca zopfii Genotype 2. The description is as above. The format is cell-based. The note with it: 32 degrees, 72 hours. Here is the method:
as §2, §1

Where [6] appears, read: strain NUBS19001, feline protothecosis.
Where [7] appears, read: strain NUBS19002, canine protothecosis.
The mark [8] stands for this setting: strain NUBS19003, canine protothecosis.
The mark [9] stands for this setting: strain NUBS19004, environment (GT1).
[10] abbreviates: strain SAG2063T, type strain of (GT1).
Where [11] appears, read: strain A7, bovine protothecal mastitis (GT2).
[12] abbreviates: strain A8, bovine protothecal mastitis (GT2).
Where [13] appears, read: strain A9, bovine protothecal mastitis (GT2).
Setting [14] is: strain A10, bovine protothecal mastitis (GT2).
[15] abbreviates: strain A11, bovine protothecal mastitis (GT2).
[16] abbreviates: strain A13, bovine protothecal mastitis (GT2).
Where [17] appears, read: strain A14, bovine protothecal mastitis (GT2).
Setting [18] is: strain A15, bovine protothecal mastitis (GT2).
[19] abbreviates: strain A16, bovine protothecal mastitis (GT2).
Setting [20] is: strain A17, bovine protothecal mastitis (GT2).
[21] abbreviates: strain SAG2021T, type strain of GT2.

As to `C[C@@H](c1nc(-c2ccc(C#N)cc2)cs1)[C@@](Cn1cncn1)(OCOP(=O)(O)O)c1ccc(F)cc1F` [Fosravuconazole, fosravuconazole], the “conversion of prodrug to ravuconazole” value in data set [1] is listed as “rapidly converted to ravuconazole”.
Turning to gentamicin, the “effectiveness against several strains of Prototheca wickerhamii and Prototheca zopfii” value in data set [2] is on record as “not effective”.
For the compound ravuconazole [RVZ], the “MIC for the control strain Candida parapsilosis ATCC 22019” value in data set [3] was determined as 0.03 µg/mL. The “effectiveness (anti-algae effect) compared with itraconazole against pathogen of prototheca species” value with prototheca species (versus itraconazole) was “more effective”. In the data set with prototheca species (versus publicly known results of KM, GM, AMB, ITZ), the “activity compared with publicly known results of kanamycin, gentamicin, amphotericin B and itraconazole against prototheca species” value is reported as “stronger activity”. Also, the MICs was determined as 0.03 mg/L in the data set on Prototheca wickerhamii (setting [6]); 0.03 mg/L against Prototheca wickerhamii (setting [7]); 0.03 mg/L against Prototheca wickerhamii (setting [8]); 0.03 mg/L with Prototheca blaskeae; 0.03 mg/L in data set [4] (strain I1, environment (GT1)); 0.03 mg/L in data set [4] (strain I3, environment (GT1)). The MICs in data set [4] (setting [9]) is 0.03 mg/L; in data set [4] (strain S2, environment (GT1)) it was 0.03 mg/L; in data set [4] (strain S3, environment (GT1)), 0.03 mg/L; in data set [4] (strain S29, environment (GT1)), 0.03 mg/L; in data set [4] (strain S36, environment (GT1)), 0.03 mg/L; in data set [4] (strain S42, environment (GT1)), 0.03 mg/L. Moreover, the MICs in data set [4] (setting [10]) is on record as 0.03 mg/L; in data set [4] (strain W3, environment (GT1)), 0.03 mg/L; in data set [4] (strain W20, environment (GT1)) it was 0.03 mg/L; in data set [5] (setting [11]), 0.125 mg/L; in data set [5] (setting [12]), 0.03 mg/L; in data set [5] (setting [13]), 0.03 mg/L. The MICs in data set [5] (setting [14]) was found to be 0.03 mg/L; in data set [5] (setting [15]) it was 0.25 mg/L; in data set [5] (setting [16]), 0.125 mg/L; in data set [5] (setting [17]), 0.03 mg/L; in data set [5] (setting [18]), 0.0625 mg/L; in data set [5] (setting [19]), 0.03 mg/L. Moreover, the MICs stood at 0.25 mg/L in data set [5] (setting [20]) and 0.125 mg/L in data set [5] (setting [21]). Besides, the “MIC of the three clinical isolates of Prototheca wickerhamii” value with Prototheca wickerhamii (summary over three clinical isolates) amounted to 0.03 µg/mL. In data set [4] (summary over 11 isolates of Genotype 1), the “MIC of 11 isolates of Genotype 1 of Prototheca zopfii” value was 0.03 µg/mL.
On to `C[C@@H]1[C@H](O)[C@@H](C)/C=C/C=C/C=C/C=C/C=C/C=C/C=C/[C@H](O[C@@H]2O[C@H](C)[C@@H](O)[C@H](N)[C@@H]2O)C[C@@H]2O[C@](O)(C[C@@H](O)C[C@@H](O)[C@H](O)CC[C@@H](O)C[C@@H](O)CC(=O)O[C@H]1C)C[C@H](O)[C@H]2C(=O)O` [AMB, amphotericin B], for which the “effectiveness against several strains of Prototheca wickerhamii and Prototheca zopfii” value in data set [2] was “not effective”.
Compound `CCC(C)n1ncn(-c2ccc(N3CCN(c4ccc(OCC5COC(Cn6cncn6)(c6ccc(Cl)cc6Cl)O5)cc4)CC3)cc2)c1=O` (stereo not shown) [ITZ, itraconazole] came in with an MIC in data set [3] (Lodderomyces parapsilosis, ATCC22019) of 0.125 µg/mL (≈ 0.177 µM). Moreover, the MICs was over 32 mg/L against Prototheca wickerhamii (setting [6]); over 32 mg/L in the data set on Prototheca wickerhamii (setting [7]); 4 mg/L in the data set with Prototheca wickerhamii (setting [8]); 32 mg/L against Prototheca blaskeae; 2 mg/L in data set [4] (strain I1, environment (GT1)); 0.25 mg/L in data set [4] (strain I3, environment (GT1)). The MICs in data set [4] (setting [9]) is given as 1 mg/L; in data set [4] (strain S2, environment (GT1)), 32 mg/L; in data set [4] (strain S3, environment (GT1)), 8 mg/L; in data set [4] (strain S29, environment (GT1)), over 32 mg/L; in data set [4] (strain S36, environment (GT1)), 16 mg/L; in data set [4] (strain S42, environment (GT1)), 8 mg/L. The MICs in data set [4] (setting [10]) was 1.5 mg/L; in data set [4] (strain W3, environment (GT1)), 4 mg/L; in data set [4] (strain W20, environment (GT1)), 4 mg/L; in data set [5] (setting [11]), 32 mg/L; in data set [5] (setting [12]), 4 mg/L; in data set [5] (setting [13]), over 32 mg/L. For the same compound, the MICs in data set [5] (setting [14]) was over 32 mg/L; in data set [5] (setting [15]), over 32 mg/L; in data set [5] (setting [16]), over 32 mg/L; in data set [5] (setting [17]), over 32 mg/L; in data set [5] (setting [18]), over 32 mg/L; in data set [5] (setting [19]), 8 mg/L. The results for the MICs in data set [5] (setting [20]) and in data set [5] (setting [21]) were 4 mg/L and over 32 mg/L, respectively.
